In ChEMBL document CHEMBL1201862, “PubChem BioAssay data set” (2004):
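Tested at 5 concentrations; 48 h exposure; 96-well plates; endpoints linearly interpolated, else capped at highest concentration. GI50: concentration for 50% inhibition of growth.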 The source made the active and inactive calls. Cut-off read from the data, not from the text of the source: active = GI50 up to about 1.1 µM and inactive = higher.

How the values were obtained:
Test in all cases: NCI-60 cell line screen, 48 h
786-0 = test system: 786-0
ACHN = test system: ACHN
DU-145 = test system: DU-145
EKVX = test system: EKVX
HCC 2998 = test system: HCC 2998
HCT-15 = test system: HCT-15
HL-60 = test system: HL-60
HOP-62 = test system: HOP-62
K562 = test system: K562
Malme-3M = test system: Malme-3M
NCI-H226 = test system: NCI-H226
NCI/ADR-RES = test system: NCI/ADR-RES
OVCAR-3 = test system: OVCAR-3
OVCAR-5 = test system: OVCAR-5
SF-295 = test system: SF-295
SK-MEL-28 = test system: SK-MEL-28
SK-MEL-5 = test system: SK-MEL-5
UACC-62 = test system: UACC-62
TK-10 = test system: TK-10
SR = test system: SR

| SMILES | GI50 (786-0) | GI50 (ACHN) | GI50 (DU-145) | GI50 (EKVX) | GI50 (HCC 2998) | GI50 (HCT-15) [µM] | GI50 (HL-60) | GI50 (HOP-62) | GI50 (K562) | GI50 (Malme-3M) | GI50 (NCI-H226) | GI50 (NCI/ADR-RES) | GI50 (OVCAR-3) | GI50 (OVCAR-5) | GI50 (SF-295) | GI50 (SK-MEL-28) | GI50 (SK-MEL-5) | GI50 (UACC-62) | GI50 (TK-10) | GI50 (SR) |
| --- | --- | --- | --- | --- | --- | --- | --- | --- | --- | --- | --- | --- | --- | --- | --- | --- | --- | --- | --- | --- |
| CC1(C)COC(c2ccc(C(=O)c3ccc(Cl)cc3)cc2)=N1 | > 100 µM (inactive) | > 100 µM (inactive) | > 100 µM (inactive) | 44.6 µM (inactive) | > 100 µM (inactive) | > 100 | 43.5 µM (inactive) | > 100 µM (inactive) | 28.6 µM (inactive) | 42.5 µM (inactive) | 23 µM (inactive) | 92.7 µM (inactive) | > 100 µM (inactive) | > 100 µM (inactive) | 65.2 µM (inactive) | > 100 µM (inactive) | 7.23 µM (inactive) | > 100 µM (inactive) | – | – |
| O=C1C(Cl)=C(N[C@@H](Cc2ccccc2)C(=O)OCc2ccccc2)C(=O)c2c(O)ccc(O)c21 | 3.11 µM (inactive) | 4.05 µM (inactive) | 4.45 µM (inactive) | 7.18 µM (inactive) | > 10 µM (inactive) | 1.19 | 2.07 µM (inactive) | 3.52 µM (inactive) | – | 5.35 µM (inactive) | 5.3 µM (inactive) | 1.88 µM (inactive) | 2.45 µM (inactive) | 6.18 µM (inactive) | 5.66 µM (inactive) | 6.34 µM (inactive) | 3.24 µM (inactive) | 2.96 µM (inactive) | > 10 µM (inactive) | – |
| CN(C)CCN1N=Nc2cccc3cccc1c23 | > 100 µM (inactive) | 61.1 µM (inactive) | – | > 100 µM (inactive) | > 100 µM (inactive) | > 61.9 | > 46.8 µM (inactive) | > 100 µM (inactive) | > 65.2 µM (inactive) | > 78.3 µM (inactive) | > 100 µM (inactive) | – | > 100 µM (inactive) | > 100 µM (inactive) | > 100 µM (inactive) | > 100 µM (inactive) | > 88.7 µM (inactive) | > 100 µM (inactive) | > 100 µM (inactive) | 15.7 µM (inactive) |
| CC(C)(C)C1CCC2c3c([nH]c4ncccc34)C3C(=O)N(c4ccccc4)C(=O)C3C2C1 (stereo not drawn) | > 100 µM (inactive) | > 100 µM (inactive) | – | > 100 µM (inactive) | > 100 µM (inactive) | > 100 | 65.9 µM (inactive) | > 100 µM (inactive) | > 100 µM (inactive) | > 100 µM (inactive) | > 100 µM (inactive) | – | > 100 µM (inactive) | > 100 µM (inactive) | > 100 µM (inactive) | > 100 µM (inactive) | > 100 µM (inactive) | > 100 µM (inactive) | > 100 µM (inactive) | 36.1 µM (inactive) |
| Cc1cc(C)nc(NS(=O)(=O)c2ccc(NC(=O)c3cccc4c(=O)c5ccccc5[nH]c34)cc2)n1 | 18.7 µM (inactive) | 21.6 µM (inactive) | – | 26.5 µM (inactive) | 16.7 µM (inactive) | 19.7 | 16.6 µM (inactive) | 20.1 µM (inactive) | 18.6 µM (inactive) | 17.9 µM (inactive) | 19.1 µM (inactive) | – | 19.5 µM (inactive) | > 10 µM (inactive) | 19.8 µM (inactive) | 18.8 µM (inactive) | 11.7 µM (inactive) | 20 µM (inactive) | 25.9 µM (inactive) | 24.8 µM (inactive) |
| Cc1ccc(NC(=O)CC/C(CC(=O)C(C)(C)C)=N/Nc2nnc(C)n2N)cc1C | > 100 µM (inactive) | > 100 µM (inactive) | – | 30.8 µM (inactive) | > 100 µM (inactive) | > 100 | > 100 µM (inactive) | > 100 µM (inactive) | 43 µM (inactive) | > 100 µM (inactive) | > 100 µM (inactive) | – | > 100 µM (inactive) | > 100 µM (inactive) | > 100 µM (inactive) | > 100 µM (inactive) | > 100 µM (inactive) | > 100 µM (inactive) | > 100 µM (inactive) | 94.8 µM (inactive) |
| COc1cc(OC)c(C/C=C/c2ccccc2)cc1O | 18.2 µM (inactive) | 25.7 µM (inactive) | 17.1 µM (inactive) | 17.2 µM (inactive) | 16.3 µM (inactive) | 16.5 | 19.3 µM (inactive) | – | 14.4 µM (inactive) | 16.2 µM (inactive) | 17.9 µM (inactive) | 14.5 µM (inactive) | 14.7 µM (inactive) | 26.6 µM (inactive) | – | 16.6 µM (inactive) | 15.8 µM (inactive) | 15.5 µM (inactive) | 16.4 µM (inactive) | – |
| CC1(C)[C@H]2CC[C@@]13C(=O)N1C(=O)O[C@@H]([C@H]1Cl)C(Cl)(COCc1ccccc1)C(=O)OCCO[C@H]3C2 (stereo partly drawn) | 70 µM (inactive) | 70.6 µM (inactive) | – | 95.9 µM (inactive) | 57.3 µM (inactive) | 40.8 | 35.2 µM (inactive) | > 100 µM (inactive) | 24.3 µM (inactive) | 60.8 µM (inactive) | – | 59.4 µM (inactive) | 54.2 µM (inactive) | > 100 µM (inactive) | 51.1 µM (inactive) | > 100 µM (inactive) | 29.9 µM (inactive) | 83.6 µM (inactive) | – | 39.7 µM (inactive) |
| COC(=O)c1cc(-c2ccc(OC)c(OC)c2)oc1-c1ccc(OC)c(OC)c1 | 37.3 µM (inactive) | 35.2 µM (inactive) | – | 52.4 µM (inactive) | 81.8 µM (inactive) | 47.2 | 64.7 µM (inactive) | 35.7 µM (inactive) | 80.9 µM (inactive) | 43.7 µM (inactive) | 34.3 µM (inactive) | – | 42.5 µM (inactive) | 36.1 µM (inactive) | 23.8 µM (inactive) | 57.9 µM (inactive) | > 10 µM (inactive) | 70.1 µM (inactive) | 53.8 µM (inactive) | 28.6 µM (inactive) |
| CSc1ccc(-c2cn3ccsc3n2)c(O)c1 | 20.7 µM (inactive) | > 82.6 µM (inactive) | – | > 81.3 µM (inactive) | > 60 µM (inactive) | 17.6 | 17 µM (inactive) | 49.9 µM (inactive) | 26.4 µM (inactive) | > 61.1 µM (inactive) | > 100 µM (inactive) | – | 36.7 µM (inactive) | > 92.9 µM (inactive) | 39 µM (inactive) | > 100 µM (inactive) | 41 µM (inactive) | 69.7 µM (inactive) | 61.8 µM (inactive) | 40.6 µM (inactive) |
| COc1ccc(OC)c2c1ccc1c(C)c3ccccc3c(C)c12 | > 100 µM (inactive) | > 100 µM (inactive) | > 100 µM (inactive) | – | 15.8 µM (inactive) | 18 | 57.1 µM (inactive) | 86.5 µM (inactive) | 51.8 µM (inactive) | > 100 µM (inactive) | > 100 µM (inactive) | – | 95.3 µM (inactive) | > 100 µM (inactive) | – | > 100 µM (inactive) | – | > 100 µM (inactive) | > 100 µM (inactive) | 36.6 µM (inactive) |
| O=c1c(Br)cc2nc3ccccc3sc-2c1Br | 15.4 µM (inactive) | > 100 µM (inactive) | – | > 74.6 µM (inactive) | > 100 µM (inactive) | > 68.7 | 16.3 µM (inactive) | > 100 µM (inactive) | 18.7 µM (inactive) | > 100 µM (inactive) | > 100 µM (inactive) | – | 16.9 µM (inactive) | > 100 µM (inactive) | > 100 µM (inactive) | > 100 µM (inactive) | 29.5 µM (inactive) | 25 µM (inactive) | > 100 µM (inactive) | 53.5 µM (inactive) |
| CC(N)C(C)c1ccccc1 (stereo not drawn) | > 100 µM (inactive) | > 100 µM (inactive) | – | > 100 µM (inactive) | > 100 µM (inactive) | > 100 | > 100 µM (inactive) | > 100 µM (inactive) | > 100 µM (inactive) | > 100 µM (inactive) | > 100 µM (inactive) | – | > 100 µM (inactive) | > 100 µM (inactive) | > 100 µM (inactive) | > 100 µM (inactive) | > 100 µM (inactive) | > 100 µM (inactive) | > 100 µM (inactive) | > 100 µM (inactive) |
| CCOC(=O)CSC1NC(C(=O)OC)CC1OC (stereo not drawn) | > 100 µM (inactive) | > 100 µM (inactive) | > 100 µM (inactive) | > 100 µM (inactive) | > 100 µM (inactive) | > 100 | – | > 100 µM (inactive) | > 100 µM (inactive) | > 100 µM (inactive) | – | > 100 µM (inactive) | > 100 µM (inactive) | > 100 µM (inactive) | > 100 µM (inactive) | > 100 µM (inactive) | > 100 µM (inactive) | > 100 µM (inactive) | > 100 µM (inactive) | – |
| Cc1cc2c(cc1O)CC[C@@H]1[C@@H]2CC[C@]2(C)[C@@H](O)CC[C@@H]12 | 14.6 µM (inactive) | 18.9 µM (inactive) | – | – | 11.4 µM (inactive) | 4.08 | 1.73 µM (inactive) | – | 2.58 µM (inactive) | 6.73 µM (inactive) | – | 5.77 µM (inactive) | – | 21.2 µM (inactive) | 6.08 µM (inactive) | 10.8 µM (inactive) | 4.67 µM (inactive) | – | 24 µM (inactive) | 1.83 µM (inactive) |
| Clc1ccc(COC(Cn2ccnc2)c2ccc(Cl)cc2Cl)c(Cl)c1 (stereo not drawn) [MICONAZOLE] | 7.33 µM (inactive) | 15 µM (inactive) | 15.7 µM (inactive) | 14.3 µM (inactive) | 17.1 µM (inactive) | 10.8 | 3.78 µM (inactive) | 13.5 µM (inactive) | 3.66 µM (inactive) | 14.9 µM (inactive) | – | 6.1 µM (inactive) | 12.2 µM (inactive) | 17.7 µM (inactive) | 11.2 µM (inactive) | 17.1 µM (inactive) | – | 11.5 µM (inactive) | 13.7 µM (inactive) | – |
